# Columns and labels:
# [1] = system: phosphorylation of histone H3 on Ser-10 in HeLa cells; assay: Western blot, histone H3 Ser-10 phosphorylation; format: cell-based, human; conditions: 12 h
# Description: Western Blot analysis: Western blotting was carried out as described previously. The primary antibodies used were from Cell Signaling (Histone H3; p-Histone H3^S10 and Phospho-Aurora A (Thr288)/Aurora B (Thr232)/Aurora C (Thr198)) and used at recommended dilution. For cell synchronization at prometaphase, HeLa cells were treated with 50 ng/mL nocodazole (NZ) (Santa Cruz Biotechnology) for 12 h. All experiments were carried out at least twice.
# [2] = system: Plasmodium falciparum 3D7 and W2 strains; assay: In vitro anti-plasmodial assay, both strains; format: cell-based
# Description: Parasites were grown in A-positive human blood (Etablissement Français du Sang, Marseille, France) under controlled atmospheric conditions that consisted of 10% O2, 5% CO2, and 85% N2 at 37 °C with a humidity of 95%.
# In vitro anti-plasmodial assay: The two P. falciparum strains 3D7 and W2 were synchronized twice with sorbitol before use. The clonality of these strains was verified both in our laboratory and in an independent laboratory from the Worldwide Anti-malarial Resistance Network (WWARN) by PCR genotyping of the polymorphic genetic markers msp1 and msp2 and microsatellite loci. The compounds were re-suspended in methanol or DMSO 5% (v/v) and then diluted in methanol to obtain final concentrations ranging from 0.008 to 500 μg/mL (final concentration of 0.5% of methanol or DMSO). […] The plates were incubated for 72 h at 37 °C in controlled atmospheric conditions 5% CO2, 10% O2, and […]. After thawing the plates, haemolysed cultures were homogenized by vortexing the plates. Both the success of the drug susceptibility assay and the appropriate volume of haemolysed culture to use for each assay were determined for each clinical isolate during a preliminary HRP2 ELISA. Both the pre-test and subsequent ELISA assays were performed using a commercial kit (Malaria Ag Celisa, ref KM2159, Cellabs PTY LTD, Brookvale, Australia) according to the manufacturer’s recommendation. The optical density (OD) of each sample was measured with a spectrophotometer (Safire 2, Tecan, Lyon, France). […] The anti-plasmodial in vitro assay was performed five times for each product. The IC50 values represented the mean value calculated from five experiments. According to Hout, a selectivity index (SI) was based on the ratio between anti-parasitic and cytotoxic activities. In the case of our study, a SI was calculated between non-tumorigenic cell line 184B5 and parasites 3D7 or W2 and/or MCF10A and these two parasites.
# Aurora A = molecular target: T1, Aurora A (Homo sapiens, UniProt O14965); assay: In vitro kinase assay (ADP-Glo), Aurora A; format: biochemical; conditions: ± standard deviation, n = 2
# T1 construct: purchased Promega
# T1 sequence (O14965 1-403): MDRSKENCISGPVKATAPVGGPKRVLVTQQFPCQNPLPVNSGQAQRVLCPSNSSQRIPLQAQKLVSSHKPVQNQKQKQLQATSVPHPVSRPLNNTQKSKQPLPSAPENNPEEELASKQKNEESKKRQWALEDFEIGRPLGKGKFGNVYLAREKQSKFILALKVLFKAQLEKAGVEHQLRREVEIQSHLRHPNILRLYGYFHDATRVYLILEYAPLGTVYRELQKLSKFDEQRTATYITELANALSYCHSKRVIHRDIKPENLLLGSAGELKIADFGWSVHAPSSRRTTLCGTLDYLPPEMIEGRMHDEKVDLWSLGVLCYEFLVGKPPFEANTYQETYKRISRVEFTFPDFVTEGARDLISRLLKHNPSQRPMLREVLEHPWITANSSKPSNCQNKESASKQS
# Description: In vitro kinase assay: The Aurora A and B kinase assays were carried out using the Promega ADP-Glo based Kinase Activity Profiling system. The protocols for the Aurora A/(Myelin Basic Protein (MBP) and Aurora B/MBP assay kits were according to those recommended by the suppliers. The concentration range used was from 20 μM–39.1 nM in 384-well plates. The luminescent output from the kinase assay was read on a Biotek Synergy H4 plate reader.
# HeLa cells = assay: Cell cycle analysis, propidium iodide flow cytometry; format: cell-based, human; conditions: asynchronous HeLa, 10 μM, 12–72 h
# Description: Cell cycle analysis: Propidium iodide staining and flow cytometry analysis were carried out as described previously with minor modifications. Briefly, 250,000 HeLa cells (50,000 cells/mL) were treated with 10 μM oxostephanine (1) and harvested at the indicated time points. All experiments were carried out at least twice.
# [3] = system: HeLa, MDA-MB231, MDA-MB-468, MCF7, 184B5 and MCF10A cell lines; assay: SRB cell proliferation assay, whole panel of cell lines; format: cell-based, human; conditions: Homo sapiens; cancer and non-cancer cell lines; read-out: IC50 values, range over the cell lines examined
# Description: (§1) In vitro anticancer study: The in vitro anti-proliferative tests were carried out as described previously, using aliquots of the cell lines used therein. Briefly, HeLa, MDA-MB-231 and MDA-MB-468, MCF7, and 184B5 and MCF 10A cell lines were purchased from ATCC. The identity of the cell lines presented in this study were verified by short tandem repeat profiling by Genetica DNA Laboratories (www.celllineauthentication.com) (April 8, 2015). MCF10A was grown in DMEM F12 medium supplemented with 0.02 μg/mL epidermal growth factor, 10% FBS, 10 μg/mL insulin and […] hydrocortisone. MDA-MB-468 were grown in DMEM supplemented with 10% FBS and antibiotics cocktail (100 μg/mL streptomycin, 100 units/mL penicillin and 250 ng/mL amphotericin B). SRB cell proliferation assays were carried out as previously described, with some minor modifications. The concentration range for all tested cell lines were from 100–0.39 μg/mL for extracts and 100–0.39 μM for pure compounds. […] All experiments were carried out at least twice.
# MCF7 = assay: SRB cell proliferation assay, MCF7; format: cell-based, human
# Description: as §1
structure (smiles),measurement,setting,value
"COc1cccc2c1C(=O)c1nccc3cc4c(c-2c13)OCO4 [Oxostephanine 1, oxostephanine]",Phosphorylation of histone H3 on Ser-10,[1],dramatically downregulated
same,Anti-plasmodial activity against both 3D7 and W2 (in words),[2],not active
same,IC50,Aurora A,0.422 ± 0.13 µM
same,Cell cycle distribution,HeLa cells,induces a transient G2/M arrest and apoptotic cell death
same,IC50,[3],1.66 to 4.35 µM
same,IC50,"MCF7; Homo sapiens, MCF7, Table 2A, SRB, 72 h, read-out: IC50 (μM ± SD) MCF7",4.35 ± 1.2 µM
same,Selectivity index (SI) 184B5 versus MCF7,"MCF7; Table 2B, non-cancer 184B5 vs cancer MCF7",0.38
same,Selectivity index (SI) MCF10A versus MCF7,"MCF7; Table 2B, non-cancer MCF10A vs cancer MCF7",0.57
